Results published in patent US20050197350A1, “Novel quinoline, tetrahydroquinazoline, and pyrimidine derivatives and methods of treatment related to the use thereof” (TAISHO PHARMACEUTICAL CO., LTD., priority 2003, published 2005).

Test system: MCH receptors
Assay: MCH receptor activity class (method not given)
Conditions: MCH receptor; class by percent of control at 10^-7 M or IC50

SMILES	class
CN(C)c1nc(N[C@H]2CC[C@@H](NC(=O)NCCc3cccs3)CC2)nc2c1CCCC2 [compound 1914]	3 (Class 3 The value of percent of control at 10^−7 M was more than 60% or the value of IC50 was more than 200 nM.)
CN(C)c1nc(N[C@H]2CC[C@@H](NC(=O)Nc3ccccc3C#N)CC2)nc2c1CCCC2 [compound 1915]	3 (Class 3 The value of percent of control at 10^−7 M was more than 60% or the value of IC50 was more than 200 nM.)
CN(C)c1nc(N[C@H]2CC[C@@H](NC(=O)Nc3cccs3)CC2)nc2c1CCCC2 [compound 1916]	3 (Class 3 The value of percent of control at 10^−7 M was more than 60% or the value of IC50 was more than 200 nM.)
CN(C)c1nc(N[C@H]2CC[C@@H](NC(=O)Nc3ccsc3)CC2)nc2c1CCCC2 [compound 1917]	3 (Class 3 The value of percent of control at 10^−7 M was more than 60% or the value of IC50 was more than 200 nM.)
CN(C)c1nc(N[C@H]2CC[C@@H](NC(=O)Nc3ccc(C(C)(C)C)cc3)CC2)nc2c1CCCC2 [compound 1918]	3 (Class 3 The value of percent of control at 10^−7 M was more than 60% or the value of IC50 was more than 200 nM.)
CN(C)c1nc(N[C@H]2CC[C@@H](NC(=O)Nc3ccc(-c4ccccc4)s3)CC2)nc2c1CCCC2 [compound 1919]	3 (Class 3 The value of percent of control at 10^−7 M was more than 60% or the value of IC50 was more than 200 nM.)
CN(C)c1nc(N[C@H]2CC[C@@H](NC(=O)Nc3cc(F)cc4c3OCOC4)CC2)nc2c1CCCC2 [compound 1920]	3 (Class 3 The value of percent of control at 10^−7 M was more than 60% or the value of IC50 was more than 200 nM.)
CN(C)c1nc(N[C@H]2CC[C@@H](NC(=O)NC3CCN(C(=O)OCc4ccccc4)CC3)CC2)nc2c1CCCC2 [compound 1921]	3 (Class 3 The value of percent of control at 10^−7 M was more than 60% or the value of IC50 was more than 200 nM.)
CN(C)c1ccc(NC(=O)N[C@H]2CC[C@@H](Nc3nc4c(c(N(C)C)n3)CCCC4)CC2)cc1 [compound 1922]	3 (Class 3 The value of percent of control at 10^−7 M was more than 60% or the value of IC50 was more than 200 nM.)
CN(C)c1nc(N[C@H]2CC[C@@H](NC(=O)Nc3cc(Cl)nc(Cl)c3)CC2)nc2c1CCCC2 [compound 1923]	3 (Class 3 The value of percent of control at 10^−7 M was more than 60% or the value of IC50 was more than 200 nM.)
Cc1noc(C)c1NC(=O)N[C@H]1CC[C@@H](Nc2nc3c(c(N(C)C)n2)CCCC3)CC1 [compound 1924]	3 (Class 3 The value of percent of control at 10^−7 M was more than 60% or the value of IC50 was more than 200 nM.)
CC(=O)c1cccc(NC(=S)N[C@H]2CC[C@@H](Nc3nc4c(c(N(C)C)n3)CCCC4)CC2)c1 [compound 1925]	3 (Class 3 The value of percent of control at 10^−7 M was more than 60% or the value of IC50 was more than 200 nM.)
CC(=O)c1ccc(NC(=S)N[C@H]2CC[C@@H](Nc3nc4c(c(N(C)C)n3)CCCC4)CC2)cc1 [compound 1926]	3 (Class 3 The value of percent of control at 10^−7 M was more than 60% or the value of IC50 was more than 200 nM.)
CN(C)c1nc(N[C@H]2CC[C@@H](NC(=S)Nc3cc(C(F)(F)F)cc(C(F)(F)F)c3)CC2)nc2c1CCCC2 [compound 1927]	3 (Class 3 The value of percent of control at 10^−7 M was more than 60% or the value of IC50 was more than 200 nM.)
CN(C)c1nc(N[C@H]2CC[C@@H](NC(=S)NCc3ccccc3)CC2)nc2c1CCCC2 [compound 1928]	3 (Class 3 The value of percent of control at 10^−7 M was more than 60% or the value of IC50 was more than 200 nM.)
CN(C)c1nc(N[C@H]2CC[C@@H](NC(=S)Nc3cccc(Br)c3)CC2)nc2c1CCCC2 [compound 1929]	3 (Class 3 The value of percent of control at 10^−7 M was more than 60% or the value of IC50 was more than 200 nM.)
CCCCNC(=S)N[C@H]1CC[C@@H](Nc2nc3c(c(N(C)C)n2)CCCC3)CC1 [compound 1930]	3 (Class 3 The value of percent of control at 10^−7 M was more than 60% or the value of IC50 was more than 200 nM.)
CN(C)c1nc(N[C@H]2CC[C@@H](NC(=S)NC3CCCCC3)CC2)nc2c1CCCC2 [compound 1931]	3 (Class 3 The value of percent of control at 10^−7 M was more than 60% or the value of IC50 was more than 200 nM.)
CN(C)c1nc(N[C@H]2CC[C@@H](NC(=S)NC3CCCC3)CC2)nc2c1CCCC2 [compound 1932]	3 (Class 3 The value of percent of control at 10^−7 M was more than 60% or the value of IC50 was more than 200 nM.)
CN(C)c1nc(N[C@H]2CC[C@@H](NC(=S)Nc3cccc(Cl)c3)CC2)nc2c1CCCC2 [compound 1933]	3 (Class 3 The value of percent of control at 10^−7 M was more than 60% or the value of IC50 was more than 200 nM.)
CN(C)c1nc(N[C@H]2CC[C@@H](NC(=S)Nc3ccc(Cl)cc3)CC2)nc2c1CCCC2 [compound 1934]	3 (Class 3 The value of percent of control at 10^−7 M was more than 60% or the value of IC50 was more than 200 nM.)
CN(C)c1nc(N[C@H]2CC[C@@H](NC(=S)Nc3cc(F)ccc3F)CC2)nc2c1CCCC2 [compound 1935]	3 (Class 3 The value of percent of control at 10^−7 M was more than 60% or the value of IC50 was more than 200 nM.)

SMILES	class
CN(C)c1nc(N[C@H]2CC[C@@H](NC(=S)Nc3cc(Cl)ccc3Cl)CC2)nc2c1CCCC2 [compound 1936]	3 (Class 3 The value of percent of control at 10^−7 M was more than 60% or the value of IC50 was more than 200 nM.)
CN(C)c1nc(N[C@H]2CC[C@@H](NC(=S)Nc3ccc(Cl)c(Cl)c3)CC2)nc2c1CCCC2 [compound 1937]	3 (Class 3 The value of percent of control at 10^−7 M was more than 60% or the value of IC50 was more than 200 nM.)
CN(C)c1nc(N[C@H]2CC[C@@H](NC(=S)Nc3c(Cl)cccc3Cl)CC2)nc2c1CCCC2 [compound 1938]	3 (Class 3 The value of percent of control at 10^−7 M was more than 60% or the value of IC50 was more than 200 nM.)
CCOc1ccc(NC(=S)N[C@H]2CC[C@@H](Nc3nc4c(c(N(C)C)n3)CCCC4)CC2)cc1 [compound 1939]	3 (Class 3 The value of percent of control at 10^−7 M was more than 60% or the value of IC50 was more than 200 nM.)
CN(C)c1nc(N[C@H]2CC[C@@H](NC(=S)NCc3ccco3)CC2)nc2c1CCCC2 [compound 1940]	3 (Class 3 The value of percent of control at 10^−7 M was more than 60% or the value of IC50 was more than 200 nM.)
CN(C)c1nc(N[C@H]2CC[C@@H](NC(=S)Nc3ccc(F)cc3)CC2)nc2c1CCCC2 [compound 1941]	3 (Class 3 The value of percent of control at 10^−7 M was more than 60% or the value of IC50 was more than 200 nM.)
CCCCCCNC(=S)N[C@H]1CC[C@@H](Nc2nc3c(c(N(C)C)n2)CCCC3)CC1 [compound 1942]	3 (Class 3 The value of percent of control at 10^−7 M was more than 60% or the value of IC50 was more than 200 nM.)
CCC[C@H]1CC[C@H](c2ccc(NC(=S)N[C@H]3CC[C@@H](Nc4nc5c(c(N(C)C)n4)CCCC5)CC3)cc2)CC1 [compound 1943]	3 (Class 3 The value of percent of control at 10^−7 M was more than 60% or the value of IC50 was more than 200 nM.)
CC(C)CNC(=S)N[C@H]1CC[C@@H](Nc2nc3c(c(N(C)C)n2)CCCC3)CC1 [compound 1944]	3 (Class 3 The value of percent of control at 10^−7 M was more than 60% or the value of IC50 was more than 200 nM.)
COc1ccc(-c2ccccc2)cc1NC(=S)N[C@H]1CC[C@@H](Nc2nc3c(c(N(C)C)n2)CCCC3)CC1 [compound 1945]	3 (Class 3 The value of percent of control at 10^−7 M was more than 60% or the value of IC50 was more than 200 nM.)
CN(C)c1nc(N[C@H]2CC[C@@H](NC(=S)NCc3ccc4c(c3)OCO4)CC2)nc2c1CCCC2 [compound 1946]	3 (Class 3 The value of percent of control at 10^−7 M was more than 60% or the value of IC50 was more than 200 nM.)
Cc1cccc(NC(=S)N[C@H]2CC[C@@H](Nc3nc4c(c(N(C)C)n3)CCCC4)CC2)c1 [compound 1947]	3 (Class 3 The value of percent of control at 10^−7 M was more than 60% or the value of IC50 was more than 200 nM.)
CSc1ccc(NC(=S)N[C@H]2CC[C@@H](Nc3nc4c(c(N(C)C)n3)CCCC4)CC2)cc1 [compound 1948]	3 (Class 3 The value of percent of control at 10^−7 M was more than 60% or the value of IC50 was more than 200 nM.)
COc1ccc(NC(=S)N[C@H]2CC[C@@H](Nc3nc4c(c(N(C)C)n3)CCCC4)CC2)cc1 [compound 1949]	3 (Class 3 The value of percent of control at 10^−7 M was more than 60% or the value of IC50 was more than 200 nM.)
C=C(C)CNC(=S)N[C@H]1CC[C@@H](Nc2nc3c(c(N(C)C)n2)CCCC3)CC1 [compound 1950]	3 (Class 3 The value of percent of control at 10^−7 M was more than 60% or the value of IC50 was more than 200 nM.)
CNC(=S)N[C@H]1CC[C@@H](Nc2nc3c(c(N(C)C)n2)CCCC3)CC1 [compound 1951]	3 (Class 3 The value of percent of control at 10^−7 M was more than 60% or the value of IC50 was more than 200 nM.)
CN(C)c1nc(N[C@H]2CC[C@@H](NC(=S)Nc3cccc([N+](=O)[O-])c3)CC2)nc2c1CCCC2 [compound 1952]	3 (Class 3 The value of percent of control at 10^−7 M was more than 60% or the value of IC50 was more than 200 nM.)
CN(C)c1nc(N[C@H]2CC[C@@H](NC(=S)Nc3ccc([N+](=O)[O-])cc3)CC2)nc2c1CCCC2 [compound 1953]	3 (Class 3 The value of percent of control at 10^−7 M was more than 60% or the value of IC50 was more than 200 nM.)
CN(C)c1nc(N[C@H]2CC[C@@H](NC(=S)NC(C)(C)CC(C)(C)C)CC2)nc2c1CCCC2 [compound 1954]	3 (Class 3 The value of percent of control at 10^−7 M was more than 60% or the value of IC50 was more than 200 nM.)
CN(C)c1nc(N[C@H]2CC[C@@H](NC(=S)Nc3ccccc3)CC2)nc2c1CCCC2 [compound 1955]	3 (Class 3 The value of percent of control at 10^−7 M was more than 60% or the value of IC50 was more than 200 nM.)
CCCNC(=S)N[C@H]1CC[C@@H](Nc2nc3c(c(N(C)C)n2)CCCC3)CC1 [compound 1956]	3 (Class 3 The value of percent of control at 10^−7 M was more than 60% or the value of IC50 was more than 200 nM.)
